Experimental data published in US11491173B2, “Pharmaceutical composition and application thereof” (priority 2018, dated 2022).
Values joined by “and” are separate entries in the source; they are usually repeats but may differ in a detail not shown here. Equal values may be shown once.

Experiments:
[1] = test system: H9c2 cardiomyocyte damage induced by hypoxia; experiment: Hypoxia-induced H9c2 cardiomyocyte damage, mitochondrial function (MitoTracker Deep Red FM, high-content imaging); format: cell-based; settings: for mitochondrial function (Table 9): individual replicates N1-N3
Method: (§1) 2. Experimental methods: QSYQ-1 and QSYQ-2, and each active ingredient group were ultrasonically dissolved and prepared into a 0.4 mg/mL of stock solution with DMSO. When in vitro activity evaluation was performed, the above groups were diluted with the same amount of experimental medium respectively.
(§2) The cells were collected at the logarithmic growth phase and added to a 96-well culture plate with a black transparent bottom at a concentration of 5000 cells per well and a volume of 100 μL per well. The cells were incubated in an incubator with 5% CO2 at 37° C. for 24 hours. Subsequently, the tested groups were added to the experimental groups respectively, incubated for 24 hours, and then placed in a hypoxic chamber passing a mixed gas composed of 95% nitrogen and 5% CO2 at a flow rate of 15 L/min for 10 mins, and incubated for another 8 hours after inducing hypoxia damage at 37° C. The model group was only incubated for 8 hours under hypoxia, and the blank control group was incubated normally.
(§3) The labeling operation of cell fluorescent probe was as follows: the mother liquor of fluorescent probe Hoechst 33342 was diluted 1000-fold into a DMEM basic medium; then the mother liquor of MitoTracker Deep Red FM was diluted 10000-fold into a culture medium containing Hoechst 33342 to serve as a “cocktail” stain. The medium in the culture plate was discarded and replaced with the “cocktail” stain, 50 μL per well, and incubated in an incubator away from light for 30 mins. The plate was taken out away from light, and washed with DMEM (high glucose) for 3 times and 5 minutes each time. Live cell imaging was performed subsequently.
(§4) The operation of live cell imaging with HCS was as follows: an excitation light of 360-400 and an emission light of 410-480 were selected for the imaging of Hoechst 33342-labeled nuclei; an excitation light of 620-640 and an emission light of 650-760 were selected for the imaging of MitoTracker Deep Red FM-labeled mitochondria. Harmony 3.0 software was applied to analyze the HCS imaging and read the fluorescence intensities of the nucleus/cytoplasm. The HCS screening system combined the automatic fluorescence microscopy imaging functions, and can perform a high-throughput multi-index analysis. Columbus high-efficiency image and data management and analysis system were applied to perform a secondary analysis and management of the image and data, and draw the dosage-dependent curve relationship.

[2] = test system: H9c2 cardiomyocyte damage induced by hypoxia; experiment: Hypoxia-induced H9c2 cardiomyocyte damage, nucleus number (Hoechst 33342, high-content imaging); format: cell-based; settings: for nucleus number (Table 7): individual replicates N1-N3, 0.4 mg/mL DMSO stock diluted with medium
Method: as §1, §2, §3, §4

[3] = 24 h pre-incubation, then hypoxia 8 h
[4] = mean of N1-N3, 24 h pre-incubation, then hypoxia 8 h

| Compound | mitochondrial function (Table 9) [1, 3] | mitochondrial function, Mean (Table 9) [1, 4] | nucleus number (Table 7) [2, 3] | nucleus number, Mean (Table 7) [2, 4] | further results |
| --- | --- | --- | --- | --- | --- |
| O=C(/C=C/c1ccc(O)c(O)c1/C(=C\c1ccc(O)c(O)c1)C(=O)O)O[C@H](Cc1ccc(O)c(O)c1)C(=O)O [Salvianolic acid T, salvianolic acid T] | 815.14 and 888.53 and 824.27 | 842.6 | 325 and 279 and 284 | 296.0 | – |
| CC(C)=CCC[C@](C)(O[C@@H]1O[C@H](CO[C@@H]2O[C@H](CO)[C@@H](O)[C@H](O)[C@H]2O)[C@@H](O)[C@H](O)[C@H]1O)[C@H]1CC[C@]2(C)[C@@H]1[C@H](O)C[C@@H]1[C@@]3(C)CC[C@H](O[C@@H]4O[C@H](CO)[C@@H](O)[C@H](O)[C@H]4O[C@@H]4O[C@H](CO)[C@@H](O)[C@H](O)[C@H]4O)C(C)(C)[C@@H]3CC[C@]12C [Ginsenoside Rb1, ginsenoside Rb1] | 778.78 and 843.1 and 822.04 | 814.6 | 406 and 420 and 386 | 404.0 | – |
| astragaloside [Astragaioside] | – | 817.5 | 374 and 365 and 435 | 391.3 | mitochondrial function (Table 9) ([1]; 24 h pre-incubation, then hypoxia 8 h, listed as Astradaloside): 812.45 and 768.63 and 871.37 |
| Cc1cccc2c3c(ccc12)C1=C(C(=O)C3=O)[C@@H](C)CO1 [Dihydrotanshinone I, dihydrotanshinone I] | 930.1 and 918.77 and 813.04 | 887.3 | 303 and 373 and 313 | 339.7 | – |
| O=C(O)C1Cc2ccc(O)c3c2C(=Cc2ccc(O)c(O)c2O3)C1=O (stereo not drawn) [Salvianolic acid G, salvianolic acid G] | – | 867.7 | 380 and 328 and 391 | 366.3 | mitochondrial function (Table 9) ([1]; 24 h pre-incubation, then hypoxia 8 h, listed as Saivianolic acid G): 870.9 and 831.06 and 901.01 |
| O=C(/C=C/c1ccc(O)c(O)c1)O[C@H](Cc1ccc(O)c(O)c1)C(=O)O [Rosmarinic acid, rosmarinic acid] | – | 790.6 | – | 345.3 | – |
| COc1ccc(-c2coc3cc(O)ccc3c2=O)cc1 [Formononetin, formononetin] | – | 863.7 | – | 376.3 | – |
| O=C(/C=C/c1ccc(O)c(O)c1/C=C/c1ccc(O)c(O)c1)O[C@H](Cc1ccc(O)c(O)c1)C(=O)O [Salvianolic acid A, salvianolic acid A] | – | 905.1 | 264 and 287 and 254 | 268.3 | mitochondrial function (Table 9) ([1]; 24 h pre-incubation, then hypoxia 8 h, listed as Saivianolic acid A): 914.19 and 859.26 and 941.93 |
| O=C(O)[C@H](O)Cc1ccc(O)c(O)c1 [Danshensu] | 909.24 and 845.81 and 882.04 | 879.0 | 326 and 371 and 342 | 346.3 | – |
| O=C(/C=C/c1ccc(O)c2c1[C@H](C(=O)O[C@H](Cc1ccc(O)c(O)c1)C(=O)O)[C@@H](c1ccc(O)c(O)c1)O2)O[C@H](Cc1ccc(O)c(O)c1)C(=O)O [Salvianolic acid B, salvianolic acid B] | 801.62 and 853.39 and 910.53 | 855.2 | 385 and 364 and 435 | 394.7 | – |
| COc1ccc(-c2coc3cc(O[C@@H]4O[C@H](CO)[C@@H](O)[C@H](O)[C@H]4O)ccc3c2=O)cc1O [Calycosin-7-glucoside, calycosin-7-glucoside] | 967.77 and 861.05 and 877.99 | 902.3 | 312 and 366 and 323 | 333.7 | – |
| Cc1coc2c1C(=O)C(=O)c1c-2ccc2c(C)cccc12 [Tanshinone I, tanshinone I] | 876.03 and 904.55 and 828.87 | 869.8 | 379 and 315 and 300 | 331.3 | – |
| Cc1coc2c1C(=O)C(=O)c1c-2ccc2c1CCCC2(C)C [Tanshinone IIA, tanshinone IIA] | – | 695.2 | – | 393.3 | – |
| O=C(/C=C/c1ccc(O)c2c1C=Cc1cc(O)c(O)cc1O2)O[C@H](Cc1ccc(O)c(O)c1)C(=O)O [Isosalvianolic acid C, isosalvianolic acid C] | 766.96 and 812.08 and 738.89 | 772.6 | 293 (2×) and 326 | 304.0 | – |
| O=C(/C=C/c1ccc(O)c2c1[C@H](C(=O)O)[C@@H](c1ccc(O)c(O)c1)O2)O[C@H](Cc1ccc(O)c(O)c1)C(=O)O [Lithospermic acid, lithospermic acid] | – | 811.6 | – | 356.0 | – |
| COc1ccc(-c2coc3cc(O)ccc3c2=O)cc1O [Calycosin, calycosin] | – | 905.6 | – | 386.0 | – |
| C[C@H]1COC2=C1C(=O)C(=O)c1c2ccc2c1CCCC2(C)C [Cryptotanshinone, cryptotanshinone] | – | 853.8 | – | 349.0 | – |
| COc1ccc(-c2coc3cc(O[C@@H]4O[C@H](CO)[C@@H](O)[C@H](O)[C@H]4O)ccc3c2=O)cc1 [Ononin, ononin] | – | 695.0 | – | 366.0 | – |
| CC(C)=CCC[C@](C)(O[C@@H]1O[C@H](CO)[C@@H](O)[C@H](O)[C@H]1O)[C@H]1CC[C@]2(C)[C@@H]1[C@H](O)C[C@@H]1[C@@]3(C)CC[C@H](O)C(C)(C)[C@@H]3[C@@H](O[C@@H]3O[C@H](CO)[C@@H](O)[C@H](O)[C@H]3O[C@@H]3OC[C@@H](O)[C@H](O)[C@H]3O)C[C@]12C [Notoginsenoside R1, notoginsenoside R1] | – | 925.9 | 360 and 383 and 355 | 366.0 | mitochondrial function (Table 9) ([1]; 24 h pre-incubation, then hypoxia 8 h, listed as Notoainsenoside R1): 841.9 and 950.39 and 985.33 |
| O=Cc1ccc(O)c(O)c1 [Protocatechuic aldehyde, protocatechuic aldehyde] | 946.04 and 881.05 and 901.89 | 909.7 | 361 and 345 and 303 | 336.3 | – |
| CC(C)=CCC[C@](C)(O[C@@H]1O[C@H](CO)[C@@H](O)[C@H](O)[C@H]1O)[C@H]1CC[C@]2(C)[C@@H]1[C@H](O)C[C@@H]1[C@@]3(C)CC[C@H](O[C@@H]4O[C@H](CO)[C@@H](O)[C@H](O)[C@H]4O[C@@H]4O[C@H](CO)[C@@H](O)[C@H](O)[C@H]4O)C(C)(C)[C@@H]3CC[C@]12C [Ginsenoside Rd, ginsenoside Rd] | – | – | – | – | mitochondrial function, Mean (Table 9) ([1]; 8 h): 820.9; nucleus number, Mean (Table 7) ([2]; 8 h): 408.0 |
| CC(C)=CCC[C@](C)(O[C@@H]1O[C@H](CO)[C@@H](O)[C@H](O)[C@H]1O)[C@H]1CC[C@]2(C)[C@@H]1[C@H](O)C[C@@H]1[C@@]3(C)CC[C@H](O)C(C)(C)[C@@H]3[C@@H](O[C@@H]3O[C@H](CO)[C@@H](O)[C@H](O)[C@H]3O)C[C@]12C [Ginsenoside Rg1, ginsenoside Rg1] | 843.46 and 918.73 and 954.27 | 905.5 | 264 and 310 and 350 | 308.0 | – |
